Laboratory results taken from patent US9487504B2, “Imidazolyl analogs as syk inhibitors” (Merck Sharp & Dohme Corp., priority 2012, dated 2016).

biological target: T1, recombinant human GST-Syk (Homo sapiens, UniProt P43405); assay: Homogeneous Time-Resolved Fluorescence (HTRF) assay for the recombinant human Syk enzyme; assay type: biochemical; settings: ATP 25 μM, 10-dose titration, read-out: rhSYK Activity
T1 construct: purchased Carna Biosciences 08-176
Method: Syk inhibition may be determined using the following assay protocol:
Homogeneous Time-Resolved Fluorescence (HTRF) Assay for the Recombinant Human Syk Enzyme:
A recombinant GST-hSyk fusion protein was used to measure potency of compounds to inhibit human Syk activity. The recombinant human GST-Syk (Carna Biosciences #08-176) ([…]) was incubated with various concentrations of the inhibitor diluted in DMSO (0.1% final concentration) for 10 minutes at room temperature in 15 mM Tris-HCl (pH 7.5), 0.01% tween 20, 2 mM DTT in 384 well plate format. To initiate the reaction the biotinylated substrate peptide (250 nM final concentration) that contains the phosphorylation site for Syk was added with magnesium (5 mM final concentration) and ATP (25 μM final concentration). Final volume of the reaction was 10 μL. Phosphorylation of the peptide was allowed to proceed for 45 minutes at room temperature. To quench the reaction and detect the phosphorylated product, 2 nM of a Europium-anti-phosphotyrosine antibody (Perkin Elmer #AD0161) and 70 nM SA-APC (Perkin-Elmer #CR130-100) were added together in 15 mM Tris pH 7.5, 40 mM EDTA, 0.01% tween 20. Final volume of the quenching solution was 10 μL. The resulting HTRF signal was measured after 30 minutes on an EnVision (Perkin-Elmer) reader using a time-resolved fluorescence protocol. IC50 was determined following 10-dose titration (10 μM to 0.508 nM) and four parameter logistic curve fitting using the Merck Assay Data Analyzer. The rhSyk activity (IC50) is expressed as +++ (100 nM or less), ++ (between 100 and 1000 nM), + (between 1 and 10 μM).

Row | SMILES | IC50 [nM]
1 | Cc1cc(Nc2nccc(C(F)(F)F)n2)cc(-n2cnc([C@]3(O)CC[C@@H](CC(=O)O)CC3)c2)c1 [Example 16, {cis-4-hydroxy-4-[1-(3-methyl-5-{[4-(trifluoromethyl)pyrimidin-2-yl]amino}phenyl)-1H-imidazol-4-yl]-cyclohexyl}acetic acid] | ≤ 100
2 | COC(=O)C[C@H]1CC[C@@](O)(c2cn(-c3cc(C)cc(Nc4nccc(C(F)(F)F)n4)c3)cn2)CC1 [Example 17, Methyl {trans-4-hydroxy-4-[1-(3-methyl-5-{[4-(trifluoromethyl)pyrimidin-2-yl]amino}phenyl)-1H-imidazol-4-yl]-cyclohexyl}acetate] | ≤ 100
3 | COC(=O)C[C@H]1CC[C@](O)(c2cn(-c3cc(C)cc(Nc4nccc(C(F)(F)F)n4)c3)cn2)CC1 [Example 18, Methyl {cis-4-hydroxy-4-[1-(3-methyl-5-{[4-(trifluoromethyl)pyrimidin-2-yl]amino}phenyl)-1H-imidazol-4-yl]-cyclohexyl}acetate] | ≤ 100
4 | Cc1cc(Nc2nccc(C(F)(F)F)n2)cc(-n2cnc([C@]3(O)CC[C@](C)(C(=O)O)CC3)c2)c1 [Example 20, trans-4-hydroxy-1-methyl-4-[1-(3-methyl-5-{[4-(trifluoromethyl)-pyrimidin-2-yl]amino)-phenyl)-1H-imidazol-4-yl]cyclohexanecarboxylic acid] | ≤ 100
5 | CCOC(=O)C1(C)CCC(O)(c2cn(-c3cc(C)cc(Nc4nccc(C(F)(F)F)n4)c3)cn2)CC1 (stereo not drawn) [Example 22, Ethyl trans-4-hydroxy-1-methyl-4-[1-(3-methyl-5-{[4-(trifluoromethyl)pyrimidin-2-yl]amino}phenyl)-1H-imidazol-4-yl]cyclohexanecarboxylate] | ≤ 100
6 | CCOC(=O)C(C)(C)[C@H]1CC[C@](O)(c2cn(-c3cc(C)cc(Nc4cc(C(F)(F)F)ccn4)n3)cn2)CC1 [Example 23, Ethyl 2-{cis-4-hydroxy-4-[1-(4-methyl-6-{[4-(trifluoromethyl)pyridin-2-yl]amino}pyridin-2-yl)-1H-imidazol-4-yl]cyclohexyl}-2-methylpropanoate] | ≤ 100
7 | CCOC(=O)C(C)(C)C1CCC(O)(c2cn(-c3cc(C)cc(Nc4cc(C(F)(F)F)ccn4)n3)cn2)CC1 (stereo not drawn) [Example 24, Ethyl 2-{trans-4-hydroxy-4-[1-(4-methyl-6-{[4-(trifluoromethyl)-pyridin-2-yl]amino}-pyridin-2-yl)-1H-imidazol-4-yl]-cyclohexyl}-2-methylpropanoate] | 100 to 1000
8 | Cc1cc(Nc2cc(C(F)(F)F)ccn2)nc(-n2cnc([C@]3(O)CC[C@H](C(=O)O)CC3)c2)c1 [Example 26, trans-4-hydroxy-4-[1-(4-methyl-6-{[4-(trifluoromethyl)pyridin-2-yl]amino}pyridin-2-yl)-1H-imidazol-4-yl]cyclohexanecarboxylic acid] | ≤ 100
9 | Cc1cc(Nc2cc(C(F)(F)F)ccn2)nc(-n2cnc([C@]3(O)CC[C@@H](C(=O)O)CC3)c2)c1 [Example 27, cis-4-hydroxy-4-[1-(4-methyl-6-{[4-(trifluoromethyl)pyridin-2-yl]amino}pyridin-2-yl)-1H-imidazol-4-yl]cyclohexanecarboxylic acid] | ≤ 100
10 | CCOC(=O)[C@H]1CC[C@@](O)(c2cn(-c3cc(C)cc(Nc4cc(C(F)(F)F)ccn4)n3)cn2)CC1 [Example 28, Ethyl trans-4-hydroxy-4-[1-(4-methyl-6-{[4-(trifluoromethyl)pyridin-2-yl]amino}pyridin-2-yl)-1H-imidazol-4-yl]cyclohexane-carboxylate] | ≤ 100
11 | CCOC(=O)[C@H]1CC[C@](O)(c2cn(-c3cc(C)cc(Nc4cc(C(F)(F)F)ccn4)n3)cn2)CC1 [Example 29, Ethyl cis-4-hydroxy-4-[1-(4-methyl-6-{[4-(trifluoromethyl)pyridin-2-yl]amino}pyridin-2-yl)-1H-imidazol-4-yl]cyclohexane-carboxylate] | ≤ 100

same assay, conditions: ATP 25 μM, 10-dose titration, read-out: rhSYK IC50

Row | SMILES | IC50 [nM]
12 | Cc1cc(Nc2nccc(C(F)(F)F)n2)cc(-n2cnc([C@]3(O)CC[C@@H](CC(=O)O)CC3)c2)c1 [Example 16, {cis-4-hydroxy-4-[1-(3-methyl-5-{[4-(trifluoromethyl)pyrimidin-2-yl]amino}phenyl)-1H-imidazol-4-yl]-cyclohexyl}acetic acid] | 1.64
13 | Cc1cc(Nc2cc(C(F)(F)F)ccn2)nc(-n2cnc([C@]3(O)CC[C@@H](C(=O)O)CC3)c2)c1 [Example 27, cis-4-hydroxy-4-[1-(4-methyl-6-{[4-(trifluoromethyl)pyridin-2-yl]amino}pyridin-2-yl)-1H-imidazol-4-yl]cyclohexanecarboxylic acid] | 0.757
